Square brackets hold non-standard residues; d marks the D form. Peptide text beside a SMILES is read from it. * marks the point of attachment. X1 = CN1/C(=C/C=C/C=C/C2=[N+](CCCCCC(=O)*)c3ccc(S(=O)(=O)[O-])cc3C2(C)C)C(C)(C)c2cc(S(=O)(=O)O)ccc21; Hyp = O=C(O)[C@@H]1C[C@@H](O)CN1; Nlys = NCCCCNCC(=O)O; Ahx = NCCCCCC(=O)O
How the values were obtained:
[1] = tested on: human umbilical vein endothelial cells (HUVECs); experiment: CCK-8 cell viability assay on HUVECs; type: cell-based; conditions: 0-40 µM, 24 h, n = 6 wells
Procedure: The cultures were maintained under standard conditions of 37 °C and 5% CO2. Chondrocytes collected from the articular cartilage of Sprague‐Dawley (SD) rats (purchased from Jennio Biotech, JNO‐720) were cultured in DMEM medium (Precell, PM150210). Human venous endothelial cells (HUVECs, purchased from iCell, iCell‐h110) were cultured in HUVEC medium (iCell, iCell‐h110‐001b). Both cells were seeded in 96‐well plates at a density of 5000 cells per well. The medium was supplemented with 10% fetal bovine serum (FBS, Precell, 164210) and penicillin‐streptomycin (1:100 diluted from a 100× stock solution, ThermoFisher, 15140122) to support cell growth and prevent bacterial contamination. When cell confluency reached 80%, peptidomimetic probes at increasing concentrations ranging from 0 to 40 µM were added to the cell culture medium (n = 4 wells for chondrocytes, n = 6 wells for HUVECs; blank control group: 0 µM; cells cultured without probe). Following 24 h (or 72 h) of incubation, the medium was removed, and the cells were rinsed three times with 1× PBS buffer. Cell viability was assessed using the CCK‐8 assay kit (GLPBIO, GK10001−5) according to the manufacturer's instructions. After further incubation for 4 h, the optical density (OD) of the CCK‐8 solution was measured at 450 nm using a microplate reader (PerkinElmer, EnVision). For live‐dead cell staining, rat chondrocytes (5000 cells per well seeded, n = 4 wells per group) were cultured for 24 h in medium (without fetal bovine serum) containing 40 µM of each peptidomimetic probe in a 96‐well plate. […] The fluorescence images were obtained using an EVOS M7000 imaging system (Light cubes: GFP and RFP, Objective: 10×). A microscopic image was taken from the live (Calcein AM) staining of each well, and the total fluorescence signals were quantified for each image. The mean fluorescence level of each probe's group was normalized to the blank control group to estimate the relative cell viability. […] The fluorescence intensity of each well was measured by the microplate reader (Ex / Em: 620 /662 nm). […]

cartilage = experiment: In vivo and ex vivo fluorescence imaging of cartilage uptake and retention in nude mice; set-up: species or system mouse
From the text: All procedures for mouse maintenance and experiments strictly followed the policy of the Experimental Animal Ethics Committee of the Fifth Affiliated Hospital of Sun Yat‐sen University (protocol numbers: 00361, 00436). Balb/c nu mice (male, 10‐18 weeks old) were used for the general in vivo imaging experiments (Figure 3c–f; Figures S10–S14, Supporting Information). For Figure 3g,h and Figure S16 (Supporting Information), neonatal Balb/c mice (7 days old) were used. Female Balb/c mice (74 weeks old versus 12 weeks old) were used in the aged joint imaging experiment reported in Figure 4a–c and Figure S17 (Supporting Information). The RA model was made using female Balb/c mice (6‐8 weeks old) by intraperitoneal injection of an anti‐collagen antibody cocktail (1.5 mg per mouse; Chondrex, 53100) followed by selective subcutaneous injection of lipopolysaccharide (LPS, 12.5 µg per mouse, Chondrex, 53100) into the left hind paw three days later.^[ [30] ^] C57BL/6J mice (male, 6–8 weeks old) were used for the biocompatibility tests (Figures S23–S25, Supporting Information).
Typically, the fluorescence peptides or peptoids were prepared at a dose of 1 nmol (10 µM in 100 µL of 1× PBS buffer) and injected into the tail vein of each mouse 2 h prior to fluorescence imaging with an IVIS Spectrum imager (PerkinElmer Lumina III). For Figure 4, Figures S17 and S18 (Supporting Information) (joint aging and RA) and Figure S27 (Supporting Information), 2 nmol of Cy5‐(NlysO)7 (20 µM in 100 µL of 1× PBS buffer) were i.v. administered to each mouse. For 1‐week‐old neonatal mice, 1 nmol of Cy5‐(NlysO)7 (20 µM in 50 µL of 1× PBS buffer) was intravenously injected into each mouse. All in vivo imaging was performed 2 h post probe injection with the IVIS Spectrum imager (PerkinElmer, fluorescence: ex/em: 620/670 nm, exposure: 1 s, bing: 4, F/Stop: 2; field of view: A/B/C/Z). Mice were anesthesia with 3% isoflurane (RWD, R510‐22‐10) during image acquisition. Hair in the knee areas was removed before fluorescence imaging for mice in Figure 4a and Figure S17 (Supporting Information). The mice were euthanized following the final image acquisition and occasionally imaged again after skin and organ removal. Next, the airways, ankles, ears, paws, knees, tails, spines, and chest ribs were collected, imaged, and saved for subsequent histology analysis. All acquired fluorescence images were analyzed using the Living Image software (PerkinElmer). The fluorescence signal from each specimen was measured by quantifying the average radiation efficiency within the selected oval‐shaped regions‐of‐interest.
For the cartilage retention experiments (Figures S11 and S12, Supporting Information), Cy5‐(NlysO)7 (10 µM in 100 µL of 1× PBS buffer) was administered via tail vein to four male Balb/c nu mice (10 weeks old) at 2, 24, 48, and 96 h respectively, prior to fluorescence imaging using an IVIS Spectrum imaging system (ex/em: 620/670 nm, exposure: 1 s, bing: 4, F/Stop: 2). Following euthanasia, their cartilaginous tissues were harvested and imaged. The fluorescence images were analyzed and quantified as described above.

SMILES | cytotoxicity to HUVECs (CCK-8), in words [1] | cytotoxicity to HUVECs (CCK-8), in words ([1]; listed as Cy5-(NlysO)7) | in vivo retention in joints and ribs compared to peptide sequences Cy5-(GKO)7 and Cy5-R8 (cartilage; 1 nmol i.v., 0-96 h) | fluorescence in cartilage-rich tissues (knee joints, ribs) 2-96 h post-injection (cartilage; 1 nmol i.v., imaged at 2, 24, 48, 96 h) | time post-injection that in vivo signals in knee joints and thoracic costal cartilage remained detectable (cartilage; 1 nmol tail-vein injection, monitored over 96 h)
CN1/C(=C/C=C/C=C/C2=[N+](CCCCCC(=O)NCCCCCC(=O)N(CCCCN)CC(=O)N3C[C@H](O)C[C@H]3C(=O)N(CCCCN)CC(=O)N3C[C@H](O)C[C@H]3C(=O)N(CCCCN)CC(=O)N3C[C@H](O)C[C@H]3C(=O)N(CCCCN)CC(=O)N3C[C@H](O)C[C@H]3C(=O)N(CCCCN)CC(=O)N3C[C@H](O)C[C@H]3C(=O)N(CCCCN)CC(=O)N3C[C@H](O)C[C@H]3C(=O)N(CCCCN)CC(=O)N3C[C@H](O)C[C@H]3C(N)=O)c3ccc(S(=O)(=O)[O-])cc3C2(C)C)C(C)(C)c2cc(S(=O)(=O)O)ccc21 [Cy5‐(NlysO)7] ({X1-Ahx}-[Nlys][Hyp][Nlys][Hyp][Nlys][Hyp][Nlys][Hyp][Nlys][Hyp][Nlys][Hyp][Nlys][Hyp]-NH2) | did not exhibit cytotoxicity | no apparent cytotoxicity at the tested concentrations | stronger retention in the joints and ribs in vivo | at 48 h but not 96 h | 
CN1/C(=C/C=C/C=C/C2=[N+](CCCCCC(=O)NCCCCCC(=O)N[C@@H](CCCNC(=N)N)C(=O)N[C@@H](CCCNC(=N)N)C(=O)N[C@@H](CCCNC(=N)N)C(=O)N[C@@H](CCCNC(=N)N)C(=O)N[C@@H](CCCNC(=N)N)C(=O)N[C@@H](CCCNC(=N)N)C(=O)N[C@@H](CCCNC(=N)N)C(=O)N[C@@H](CCCNC(=N)N)C(N)=O)c3ccc(S(=O)(=O)[O-])cc3C2(C)C)C(C)(C)c2cc(S(=O)(=O)O)ccc21 [Cy5‐R8, reference compound] | significant cytotoxicity |  |  |  | difficult to find after 2 h post‐injection

From publication PMC12631873 (Advanced Science, 2025)
